Values quoted from earlier work in patent US7282225B1, “Composition and methods for improving retinal health” (Occular Technologies, Inc., priority 2006, dated 2007).
Where two headings read alike, the source gives them in different places. Each block holds one compound with its values, some of them ahead of it.

Assays:
animals [1] = test system: animals
animals [2] = conditions: animal study, alpha-lipoic acid supplements
AMD [3] = conditions: diet of 6 mg per day
macular degeneration = conditions: dietary or supplement intake, case-control study
[4] = healthy, young men
bladder cancer = conditions: 500 mg daily for 10 years or more
colon cancer [5] = conditions: 3 g/day
colon cancer [6] = conditions: intake of more than 157 mg/day
[7] = test system: restenosis after angioplasty; conditions: 500 mg/day
[8] = test system: patients with atherosclerosis; conditions: 2 g/day
monocytes = conditions: 2 g/day
people = conditions: more than 750 mg/day
asthma = conditions: 1-2 g/day
heart disease = conditions: more than 700 mg/day versus 60 mg/day or less
[9] = test system: age-related macular degeneration (AMD); conditions: participants at high risk (intermediate AMD, or advanced AMD in one eye only), daily oral tablets
AMD [10] = test system: AMD

SMILES: O=C(O)CCCCC1CCSS1 (stereo not drawn) [alpha-lipoic acid, Alpha-Lipoic Acid]
cholesterol levels (rats): improved cholesterol levels
thyroid hormone function (rats): altered thyroid hormone function
toxic side effects associated with cisplatin and cyclophosphamide (animals [1]): protected against toxic side effects
side effects associated with amikacin and gentamicin (animals [2]): reduced side effects, particularly toxicity to the ear

SMILES: CC1=C[C@H](O)CC(C)(C)[C@H]1/C=C/C(C)=C/C=C/C(C)=C/C=C/C=C(C)/C=C/C=C(C)/C=C/C1=C(C)C[C@@H](O)CC1(C)C [lutein, Lutein]
lower prevalence of AMD (AMD [3]): 43%
association of intake with risk of macular degeneration (macular degeneration): most strongly associated with a reduced risk

SMILES: CC1=C(/C=C/C(C)=C/C=C/C(C)=C/CO)C(C)(C)CCC1 [retinol, Retinol]
association of intake with risk of macular degeneration (macular degeneration): no effect

minimum intake required to completely saturate the blood plasma with vitamin C [4]: ≥ 1000 mg/day
SMILES: O=C1O[C@H]([C@@H](O)CO)C(O)=C1O [vitamin C, ascorbic acid]
reduction of risk of developing bladder cancer (bladder cancer): 60%
polyp growth in colon cancer (colon cancer [5]): effectively prevent further polyp growth
reduction of risk of developing colon cancer (colon cancer [6]): 50%
restenosis (reclosing of opened arteries) after angioplasty [7]: significantly reduced
vasomotor dysfunction [8]: effectively reverses
adhesion of monocytes to the lining of blood vessels (monocytes): reduce adhesion of monocytes
reduction of risk of dying prematurely (people): 60%
asthma symptoms (asthma): reduce asthma symptoms significantly
open angle glaucoma (cataracts and glaucoma; large doses): can be reversed
risk of cataracts and glaucoma (cataracts and glaucoma; supplementation): significantly lower
lower risk of dying from heart disease (heart disease): 62%
association of intake with risk of macular degeneration (macular degeneration): little effect

SMILES: Cc1c(C)c2c(c(C)c1O)CC[C@@](C)(CCC[C@H](C)CCC[C@H](C)CCCC(C)C)O2 [vitamin E, alpha-tocopherol]
association of intake with risk of macular degeneration (macular degeneration): negative effects

SMILES: CC1=C(/C=C/C(C)=C/C=C/C(C)=C/C=C/C=C(C)/C=C/C=C(C)/C=C/C2=C(C)C[C@@H](O)CC2(C)C)C(C)(C)C[C@H](O)C1 [zeaxanthin, Zeaxanthin]
association of intake with risk of macular degeneration (macular degeneration): most strongly associated with a reduced risk

SMILES: [O-2].[Zn+2] [zinc alone]
Reduced risk of developing advanced AMD [9]: about 21%
Reduced risk of vision loss [9]: about 11%
Reduced risk of developing advanced AMD ([9]; listed as Zinc Alone): AMD by about 21%.
Reduced risk of vision loss ([9]; listed as Zinc Alone): loss by about 11%.

SMILES: [Zn] [zinc]
accumulation of drusen (AMD [10]; zinc group): less accumulation of drusen
treatment of AMD (AMD [10]; zinc supplements): effective
